Laboratory results as given in the supplement of paper PMC10627819.

Legend:
B. subtilis 168 [1] = assay: fitness (endpoint OD595 vs no drug) (fraction); higher = more growth
In short: (§1)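 Fitness expresses the optical density reached at the stationary-phase transition as a fraction of the robust mean of no-drug control wells. It is capped at 1. Measurements were OD595 every 30 min for 14 h at 37 °C after inoculation of 384-well plates at OD595 0.01 (30 µl, or 55 µl for S. pneumoniae), minus the first reading.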

S. pneumoniae D39V [2] = assay: as above
In short: as §1

B. subtilis 168 [3] = assay: Bliss interaction score (quartile over a dose matrix) (fitness difference); higher = more antagonism (negative = synergy)
In short: (§2)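 Fitness was defined as normalised growth: OD595 at the start of stationary phase divided by the plate's robust no-drug mean and capped at 1. Single-drug fitness was inferred from combination measurements. The Bliss score is observed fitness minus the product of the single-drug values, summarised by quartiles across technical, biological and donor/recipient replicates.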

S. aureus Newman = assay: as above
In short: as §2

S. aureus DSM 20231 = assay: as above
In short: as §2

S. pneumoniae D39V [4] = assay: as above
In short: as §2
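For Bliss interaction score (quartile over a dose matrix) in this document: first quartile when negative (synergy) and third quartile when positive (antagonism).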
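For fitness (endpoint OD595 vs no drug) in this document: OD595 on entry to stationary phase over no-drug wells; at most 1.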

CCCCCCCCCC(=O)N[C@@H](Cc1c[nH]c2ccccc12)C(=O)N[C@H](CC(N)=O)C(=O)N[C@@H](CC(=O)O)C(=O)N[C@@H]1C(=O)NCC(=O)N[C@@H](CCCN)C(=O)N[C@@H](CC(=O)O)C(=O)N[C@H](C)C(=O)N[C@@H](CC(=O)O)C(=O)NCC(=O)N[C@H](CO)C(=O)N[C@@H]([C@H](C)CC(=O)O)C(=O)N[C@@H](CC(=O)c2ccccc2N)C(=O)O[C@@H]1C [Daptomycin] + C[C@H]1COc2c(N3CCN(C)CC3)c(F)cc3c(=O)c(C(=O)O)cn1c23 [Levofloxacin]
fitness, B. subtilis 168 [1], one replicate
Conditions	first compound 0.125 µg/mL	first compound 0.25 µg/mL	first compound 0.5 µg/mL	first compound 1 µg/mL
partner 0.001 µg/mL	0.992	≥ 1	0.978	–
partner 0.002 µg/mL	0.949	–	–	0.753
partner 0.0039 µg/mL	0.891	–	–	0.742
partner 0.0078 µg/mL	–	0.829	0.882	0.723

Conditions	fitness
B. subtilis 168 [1], first compound 0.125 µg/mL, partner 0.0312 µg/mL	0.0386
B. subtilis 168 [1], first compound 0.125 µg/mL, partner 0.0625 µg/mL	0.0435
B. subtilis 168 [1], first compound 0.125 µg/mL, partner 0.125 µg/mL	0.0465
B. subtilis 168 [1], first compound 0.25 µg/mL, partner 0.002 µg/mL	0.949
B. subtilis 168 [1], first compound 0.25 µg/mL, partner 0.0039 µg/mL	0.95
B. subtilis 168 [1], first compound 0.25 µg/mL, partner 0.0312 µg/mL	0.043
B. subtilis 168 [1], first compound 0.25 µg/mL, partner 0.0625 µg/mL	0.0534
B. subtilis 168 [1], first compound 0.25 µg/mL, partner 0.125 µg/mL	0.073
B. subtilis 168 [1], first compound 0.5 µg/mL, partner 0.002 µg/mL	0.915
B. subtilis 168 [1], first compound 0.5 µg/mL, partner 0.0039 µg/mL	0.904
B. subtilis 168 [1], first compound 0.5 µg/mL, partner 0.0312 µg/mL	0.0448
B. subtilis 168 [1], first compound 0.5 µg/mL, partner 0.0625 µg/mL	0.071
B. subtilis 168 [1], first compound 0.5 µg/mL, partner 0.125 µg/mL	0.0639
S. pneumoniae D39V [2], first compound 1 µg/mL, partner 0.1725 µg/mL	0.909
S. pneumoniae D39V [2], first compound 1 µg/mL, partner 0.2 µg/mL	0.867
S. pneumoniae D39V [2], first compound 1 µg/mL, partner 0.345 µg/mL	0.794
S. pneumoniae D39V [2], first compound 1 µg/mL, partner 0.4 µg/mL	0.678
S. pneumoniae D39V [2], first compound 1 µg/mL, partner 0.69 µg/mL	0.531
S. pneumoniae D39V [2], first compound 1 µg/mL, partner 0.8 µg/mL	0.132
S. pneumoniae D39V [2], first compound 2 µg/mL, partner 0.1725 µg/mL	0.917
S. pneumoniae D39V [2], first compound 2 µg/mL, partner 0.2 µg/mL	0.88
S. pneumoniae D39V [2], first compound 2 µg/mL, partner 0.345 µg/mL	0.813
S. pneumoniae D39V [2], first compound 2 µg/mL, partner 0.4 µg/mL	0.675
S. pneumoniae D39V [2], first compound 2 µg/mL, partner 0.69 µg/mL	0.366
S. pneumoniae D39V [2], first compound 2 µg/mL, partner 0.8 µg/mL	0.165
S. pneumoniae D39V [2], first compound 4 µg/mL, partner 0.1725 µg/mL	0.949
S. pneumoniae D39V [2], first compound 4 µg/mL, partner 0.2 µg/mL	0.818
S. pneumoniae D39V [2], first compound 4 µg/mL, partner 0.345 µg/mL	0.86
S. pneumoniae D39V [2], first compound 4 µg/mL, partner 0.4 µg/mL	0.551
S. pneumoniae D39V [2], first compound 4 µg/mL, partner 0.69 µg/mL	0.615
S. pneumoniae D39V [2], first compound 4 µg/mL, partner 0.8 µg/mL	0.133

Conditions	Bliss interaction score
B. subtilis 168 [3]	0.0436
S. aureus DSM 20231	-0.0494
S. aureus Newman	-0.0469
S. pneumoniae D39V [4]	-0.18

CCCCCCCCCC(=O)N[C@@H](Cc1c[nH]c2ccccc12)C(=O)N[C@H](CC(N)=O)C(=O)N[C@@H](CC(=O)O)C(=O)N[C@@H]1C(=O)NCC(=O)N[C@@H](CCCN)C(=O)N[C@@H](CC(=O)O)C(=O)N[C@H](C)C(=O)N[C@@H](CC(=O)O)C(=O)NCC(=O)N[C@H](CO)C(=O)N[C@@H]([C@H](C)CC(=O)O)C(=O)N[C@@H](CC(=O)c2ccccc2N)C(=O)O[C@@H]1C [Daptomycin] + C[C@H]1c2cccc(O)c2C(=O)C2=C(O)[C@]3(O)C(=O)C(C(N)=O)=C(O)[C@@H](N(C)C)[C@@H]3[C@@H](O)[C@@H]21 [Doxycycline]
Conditions	fitness
B. subtilis 168 [1], first compound 0.125 µg/mL, partner 0.02 µg/mL	0.857
B. subtilis 168 [1], first compound 0.125 µg/mL, partner 0.04 µg/mL	0.794
B. subtilis 168 [1], first compound 0.125 µg/mL, partner 0.08 µg/mL	0.605
B. subtilis 168 [1], first compound 0.25 µg/mL, partner 0.02 µg/mL	0.871
B. subtilis 168 [1], first compound 0.25 µg/mL, partner 0.04 µg/mL	0.757
B. subtilis 168 [1], first compound 0.25 µg/mL, partner 0.08 µg/mL	0.595
B. subtilis 168 [1], first compound 0.5 µg/mL, partner 0.02 µg/mL	0.83
B. subtilis 168 [1], first compound 0.5 µg/mL, partner 0.04 µg/mL	0.771
S. pneumoniae D39V [2], first compound 1 µg/mL, partner 0.0155 µg/mL	0.733
S. pneumoniae D39V [2], first compound 2 µg/mL, partner 0.0155 µg/mL	0.738
S. pneumoniae D39V [2], first compound 4 µg/mL, partner 0.0155 µg/mL	0.795

fitness, one replicate
Conditions	first compound 1 µg/mL	first compound 2 µg/mL	first compound 4 µg/mL
B. subtilis 168 [1], partner 0.02 µg/mL	0.624	–	–
B. subtilis 168 [1], partner 0.04 µg/mL	0.641	–	–
B. subtilis 168 [1], partner 0.08 µg/mL	0.188	–	–
S. pneumoniae D39V [2], partner 0.003875 µg/mL	0.928	0.934	0.981
S. pneumoniae D39V [2], partner 0.00775 µg/mL	0.866	0.878	0.927

Conditions	Bliss interaction score
B. subtilis 168 [3]	0.0559
S. aureus DSM 20231	0.0825
S. aureus Newman	0.0504
S. pneumoniae D39V [4]	-0.249

C[C@H]1COc2c(N3CCN(C)CC3)c(F)cc3c(=O)c(C(=O)O)cn1c23 [Levofloxacin] + CO[C@@H]1[C@@H](OC(N)=O)[C@@H](O)[C@H](Oc2ccc3c(O)c(NC(=O)c4ccc(O)c(CC=C(C)C)c4)c(=O)oc3c2C)OC1(C)C [Novobiocin]
fitness, B. subtilis 168 [1], one replicate
Conditions	partner 0.05 µg/mL	partner 0.1 µg/mL	partner 0.125 µg/mL	partner 0.2 µg/mL	partner 0.25 µg/mL	partner 0.5 µg/mL
first compound 0.001 µg/mL	≥ 1	≥ 1	–	≥ 1	–	–
first compound 0.002 µg/mL	0.929	0.952	0.908	0.933	0.874	0.493
first compound 0.0039 µg/mL	0.965	≥ 1	0.839	0.928	0.808	0.505
first compound 0.0078 µg/mL	–	–	0.864	–	0.808	0.457

fitness, B. subtilis 168 [1]
Conditions	first compound 0.0312 µg/mL	first compound 0.0625 µg/mL	first compound 0.125 µg/mL
partner 0.0125 µg/mL	0.0275	0.0273	0.0195
partner 0.025 µg/mL	0.0255	0.0301	0.0265
partner 0.05 µg/mL	0.028	0.0286	0.0286

Conditions	Bliss interaction score
B. subtilis 168 [3]	-0.0305
S. aureus DSM 20231	-0.0698
S. aureus Newman	-0.091
S. pneumoniae D39V [4]	-0.121
